What was measured:
Experiment in all cases: Fractional growth, 72 h seliciclib
Type in all cases: cell-based, human
786-O = 786-O (Kidney), 15 μM seliciclib
Text: (§1) A total of 270 human cancer cell lines from diverse cancer histopathologic types were investigated.

A673 = A673 (Muscle), 15 μM seliciclib
Text: as §1

BEN = BEN (Lung: NSCLC), 15 μM seliciclib
Text: as §1

BT-20 = BT-20 (Breast), 15 μM seliciclib
Text: as §1

C-33 A = C-33 A (Cervix), 15 μM seliciclib
Text: as §1

EJ138 = EJ138 (Bladder), 15 μM seliciclib
Text: as §1

G-402 = G-402 (Kidney), 15 μM seliciclib
Text: as §1

H2373 = H2373 (Lung), 15 μM seliciclib
Text: as §1

H4 = H4 (Brain), 15 μM seliciclib
Text: as §1

HCC38 = HCC38 (Breast), 15 μM seliciclib
Text: as §1

HEC-1 = HEC-1 (Uterus), 15 μM seliciclib
Text: as §1

HUP-T3 = HUP-T3 (Pancreas), 15 μM seliciclib
Text: as §1

Hs 766T = Hs 766T (Pancreas), 15 μM seliciclib
Text: as §1

IGR-1 = IGR-1 (Skin), 15 μM seliciclib
Text: as §1

JHH-2 = JHH-2 (Liver), 15 μM seliciclib
Text: as §1

JHU-013 = JHU-013 (Head & Neck), 15 μM seliciclib
Text: as §1

KYSE-410 = KYSE-410 (Esophagus), 15 μM seliciclib
Text: as §1

M-14 = M-14 (Skin), 15 μM seliciclib
Text: as §1

MFM-223 = MFM-223 (Breast), 15 μM seliciclib
Text: as §1

NCI-H1048 = NCI-H1048 (Lung), 15 μM seliciclib
Text: as §1

NCI-H1435 = NCI-H1435 (Lung: NSCLC), 15 μM seliciclib
Text: as §1

NCI-H2170 = NCI-H2170 (Lung: NSCLC), 15 μM seliciclib
Text: as §1

NCI-H2452 = NCI-H2452 (Lung), 15 μM seliciclib
Text: as §1

NCI-H841 = NCI-H841 (Lung), 15 μM seliciclib
Text: as §1

OE21 = OE21 (Esophagus), 15 μM seliciclib
Text: as §1

PCI-38 = PCI-38 (Head & Neck), 15 μM seliciclib
Text: as §1

PCI-6B = PCI-6B (Head & Neck), 15 μM seliciclib
Text: as §1

SCCH-196 = SCCH-196 (Miscellaneous), 15 μM seliciclib
Text: as §1

SCaBER = SCaBER (Bladder), 15 μM seliciclib
Text: as §1

SHP-77 = SHP-77 (Lung), 15 μM seliciclib
Text: as §1

SNG-M = SNG-M (Uterus), 15 μM seliciclib
Text: as §1

SNU-398 = SNU-398 (Liver), 15 μM seliciclib
Text: as §1

SU.86.86 = SU.86.86 (Pancreas), 15 μM seliciclib
Text: as §1

Sarc9371 = Sarc9371 (Bone), 15 μM seliciclib
Text: as §1

T.T = T.T (Esophagus), 15 μM seliciclib
Text: as §1

T84 = T84 (Intestine), 15 μM seliciclib
Text: as §1

TYK-nu = TYK-nu (Ovary), 15 μM seliciclib
Text: as §1

YAPC = YAPC (Pancreas), 15 μM seliciclib
Text: as §1

## CC[C@H](CO)Nc1nc(NCc2ccccc2)c2ncn(C(C)C)c2n1 [seliciclib, roscovitine]
786-O
  Fractional Growth: 0.3998
A673
  Fractional Growth: 0.4111
BEN
  Fractional Growth: 0.4149
BT-20
  Fractional Growth: 0.7016
C-33 A
  Fractional Growth: 0.5677
EJ138
  Fractional Growth: 0.3103
G-402
  Fractional Growth: 0.2708
H2373
  Fractional Growth: 0.6168
H4
  Fractional Growth: 0.9708
HCC38
  Fractional Growth: 0.8297
HEC-1
  Fractional Growth: 0.4632
HUP-T3
  Fractional Growth: 0.4333
Hs 766T
  Fractional Growth: 0.4284
IGR-1
  Fractional Growth: 0.5764
JHH-2
  Fractional Growth: 0.635
JHU-013
  Fractional Growth: 0.2699
KYSE-410
  Fractional Growth: 0.4693
M-14
  Fractional Growth: 0.3765
MFM-223
  Fractional Growth: 0.5683
NCI-H1048
  Fractional Growth: 0.5502
NCI-H1435
  Fractional Growth: 0.6379
NCI-H2170
  Fractional Growth: 0.4534
NCI-H2452
  Fractional Growth: 0.4571
NCI-H841
  Fractional Growth: 0.7639
OE21
  Fractional Growth: 0.4083
PCI-38
  Fractional Growth: 0.3656
PCI-6B
  Fractional Growth: 0.5328
SCCH-196
  Fractional Growth: 0.6177
SCaBER
  Fractional Growth: 0.5642
SHP-77
  Fractional Growth: 0.617
SNG-M
  Fractional Growth: 0.3393
SNU-398
  Fractional Growth: 0.0473
SU.86.86
  Fractional Growth: 0.3887
Sarc9371
  Fractional Growth: 0.6425
T.T
  Fractional Growth: 0.1271
T84
  Fractional Growth: 0.5371
TYK-nu
  Fractional Growth: 0.3005
YAPC
  Fractional Growth: 0.588
